Read-outs that look alike come from different tables or passages of the source.
What was measured:
ΔsltA CrzA:GFP = type: cell-based, Aspergillus fumigatus; settings: 15 min
CrzA:GFP = type: cell-based, Aspergillus fumigatus; settings: 15 min
[1] = test system: A. fumigatus h2A::mRFP strain; assay: h2A::mRFP fluorescence, apoptosis-like cell death marker; type: cell-based, Aspergillus fumigatus; settings: H2O2 10 mM, COL 10 or 20 μM, CAS 0.03 or 0.2 μg/mL, or CAS with COL; 1 h
A. fumigatus conidia = assay: Fungicidal activity: CFU on drug-free MM after 48 h with compound + CAS; type: cell-based, Aspergillus fumigatus; settings: 0.2 μg/mL CAS, then CFU on compound-free medium, n = 3
[2] = test system: A. fumigatus conidia in A549 cells; assay: A549 human lung epithelial cells killing assay; type: cell-based, Aspergillus fumigatus
A. fumigatus = type: cell-based, Aspergillus fumigatus; settings: 58 PKI at 20 µM alone or with COL 2.5 µM; 48 h, 37 °C
HepG2 liver cells = assay: HepG2 cytotoxicity, Alamar blue; type: cell-based, human; settings: COL 0, 20 and 40 µM + CAS 50 μg/mL; topotecan positive control; 48 h; n = 6
A. fumigatus ΔsltA = type: cell-based, Aspergillus fumigatus
A. fumigatus ΔcalA = type: cell-based, Aspergillus fumigatus
A. fumigatus ΔcrzA = type: cell-based, Aspergillus fumigatus
[3] = test system: A. fumigatus (Af293) infection; type: in vivo, Caenorhabditis elegans
[4] = test system: A. fumigatus mito::GFP germlings; type: cell-based, Aspergillus fumigatus
[5] = test system: A. fumigatus wild-type mycelia; type: cell-based, Aspergillus fumigatus; settings: n = 9
A. fumigatus ΔsltA ΔcrzA = type: cell-based, Aspergillus fumigatus
SltA = type: cell-based, Aspergillus fumigatus
[6] = test system: A. fumigatus wild-type (p)agsA::mluc; type: cell-based, Aspergillus fumigatus; settings: CAS 0.05 and 0.125 µg/mL; COL 50 and 80 µM; or combination; 16 h at 35 °C

[Ca+2].[Cl-].[Cl-] [CaCl2]
increase of CrzA:GFP localization to the nucleus (ΔsltA CrzA:GFP): about 4 fold | increase of CrzA:GFP translocation to the nucleus (CrzA:GFP): about 4 fold

OO [H2O2]
mRFP fluorescence of h2A::mRFP germlings [1]: complete loss of red fluorescence

COC(=O)C1=C(C)NC(C)=C(C(=O)OC(C)(C)CN(C)CCC(c2ccccc2)c2ccccc2)C1c1cccc([N+](=O)[O-])c1 (centres unmarked) [LER, lercanidipine]
lowest concentration with 100% fungicidal effect combined with CAS (A. fumigatus conidia): 3.95 µg/mL

C[C@@H](c1ncncc1F)[C@](O)(Cn1cncn1)c1ccc(F)cc1F [VOR, voriconazole]
A. fumigatus conidial killing ([2]; VOR 0.5 μg/mL, COL 20 and 40 μM, CAS 50 μg/mL, or COL + CAS, MOI 1:10, 24 h, n = 6): 85%

Cn1cc(C2=C(c3cn(C4CCN(Cc5ccccn5)CC4)c4ccccc34)C(=O)NC2=O)c2ccccc21 [enzaustarin, enzastaurin]
potentiation of COL activity (metabolic activity) (A. fumigatus): potentiated COL activity

CC[C@@]1(O)C(=O)OCc2c1cc1n(c2=O)Cc2cc3c(CN(C)C)c(O)ccc3nc2-1 [topotecan]
toxicity to HepG2 cells (cell viability, Alamar blue) (HepG2 liver cells): very high toxicity

caspofungin
growth of ΔsltA compared with the wild-type strain (A. fumigatus ΔsltA): comparable growth with the wild-type | growth of ΔcalA compared to wild-type (A. fumigatus ΔcalA): significantly better growth | mRFP fluorescence of h2A::mRFP germlings [1]: no differences in mRFP fluorescence | growth of ΔcrzA compared to wild-type (A. fumigatus ΔcrzA): significantly better growth | survival of infected animals over 3 days ([3]; 25 °C): significantly improved survival | germlings with mitochondrial fragmentation [4]: 35% | reduction of total ATP compared with the control [5]: about 25%

colistin
lowest concentration with 100% fungicidal effect combined with CAS (A. fumigatus conidia): 10 µM | A. fumigatus conidial killing, COL alone vs combination ([2]; COL 80 µM vs COL 80 µM + CAS 50 µg/mL): same level of conidial killing than the combination of COL 80 µM + CAS 50 µg/mL | sensitivity of ΔsltA ΔcrzA compared with ΔsltA (A. fumigatus ΔsltA ΔcrzA): as sensitive to COL and COL with CAS as ΔsltA alone | effect of Ca2+ addition on ΔsltA growth in the presence of COL (A. fumigatus ΔsltA): rescue ΔsltA growth | growth of ΔsltA compared with the wild-type strain (A. fumigatus ΔsltA): significantly more sensitive to COL | increased expression of SltA compared to non-exposure (SltA): about 4 fold | mRFP fluorescence of h2A::mRFP germlings [1]: no differences in mRFP fluorescence | survival of infected animals over 3 days ([3]; in vivo): no impact on C. elegans survival | luminescence readings compared with no compound controls [6]: about 2 fold | increase of CrzA:GFP translocation to the nucleus (CrzA:GFP): about 4 fold | germlings with mitochondrial fragmentation [4]: 20% | reduction of total ATP compared with the control [5]: about 25%
